% of control, % of inhibition and dTM data for six molecules are collected here from ChEMBL document CHEMBL5465560, “Selectivity Literature for EUbOPEN Chemogenomic Library” (2024).

The structures appear in SMILES notation.

Assay [1] has as its target T1, Serine/threonine-protein kinase D2 (Homo sapiens) (UniProt Q9BZL6).
T1 sequence (whole entry): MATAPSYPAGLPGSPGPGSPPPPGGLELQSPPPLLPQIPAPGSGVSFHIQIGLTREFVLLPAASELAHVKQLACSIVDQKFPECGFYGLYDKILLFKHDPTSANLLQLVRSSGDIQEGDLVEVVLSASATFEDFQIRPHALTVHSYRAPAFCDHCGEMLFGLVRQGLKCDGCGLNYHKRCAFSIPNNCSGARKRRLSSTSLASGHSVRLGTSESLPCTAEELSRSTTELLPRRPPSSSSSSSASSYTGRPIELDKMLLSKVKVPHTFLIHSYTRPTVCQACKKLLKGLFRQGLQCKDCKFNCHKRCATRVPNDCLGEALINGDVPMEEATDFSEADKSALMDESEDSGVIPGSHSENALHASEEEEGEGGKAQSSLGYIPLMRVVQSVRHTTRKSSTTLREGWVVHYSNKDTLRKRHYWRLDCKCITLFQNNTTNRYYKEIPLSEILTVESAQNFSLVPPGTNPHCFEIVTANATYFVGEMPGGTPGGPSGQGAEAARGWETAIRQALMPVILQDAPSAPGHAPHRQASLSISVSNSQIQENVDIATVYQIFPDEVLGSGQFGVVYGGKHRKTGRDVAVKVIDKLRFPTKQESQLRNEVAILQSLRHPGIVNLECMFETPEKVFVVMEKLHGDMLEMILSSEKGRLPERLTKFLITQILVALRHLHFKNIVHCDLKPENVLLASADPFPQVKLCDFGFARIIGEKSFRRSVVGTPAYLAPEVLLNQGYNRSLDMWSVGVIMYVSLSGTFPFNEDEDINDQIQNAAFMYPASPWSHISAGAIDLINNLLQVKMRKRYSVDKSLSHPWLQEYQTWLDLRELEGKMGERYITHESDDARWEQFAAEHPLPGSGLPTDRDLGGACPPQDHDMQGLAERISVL
Description: Selectivity interaction (Kinase panel (Z-LYTE Assay)) EUB0001632a PRKD2. The following applies: at 10 µM.

In assay [2] the target is Serine/threonine-protein kinase SIK1 (Homo sapiens) (UniProt P57059). In words: Selectivity interaction (LanthaScreen Eu Kinase Binding Assay) EUB0001632a SIK1. The following applies: at 10 µM. Background: Time-resolved FRET reads energy transfer from a long-lived donor to a nearby acceptor.
Assay [3] deals with Phosphatidylinositol 4-phosphate 3-kinase C2 domain-containing subunit alpha (Homo sapiens) (UniProt O00443). Description: Selectivity interaction (Adapta Assay) EUB0001632a PIK3C2A. The conditions noted are these: at 10 µM.
Assay [4] concerns the target T2, Serine/threonine-protein kinase BRSK2 (Homo sapiens) (UniProt Q8IWQ3).
T2 sequence (whole entry): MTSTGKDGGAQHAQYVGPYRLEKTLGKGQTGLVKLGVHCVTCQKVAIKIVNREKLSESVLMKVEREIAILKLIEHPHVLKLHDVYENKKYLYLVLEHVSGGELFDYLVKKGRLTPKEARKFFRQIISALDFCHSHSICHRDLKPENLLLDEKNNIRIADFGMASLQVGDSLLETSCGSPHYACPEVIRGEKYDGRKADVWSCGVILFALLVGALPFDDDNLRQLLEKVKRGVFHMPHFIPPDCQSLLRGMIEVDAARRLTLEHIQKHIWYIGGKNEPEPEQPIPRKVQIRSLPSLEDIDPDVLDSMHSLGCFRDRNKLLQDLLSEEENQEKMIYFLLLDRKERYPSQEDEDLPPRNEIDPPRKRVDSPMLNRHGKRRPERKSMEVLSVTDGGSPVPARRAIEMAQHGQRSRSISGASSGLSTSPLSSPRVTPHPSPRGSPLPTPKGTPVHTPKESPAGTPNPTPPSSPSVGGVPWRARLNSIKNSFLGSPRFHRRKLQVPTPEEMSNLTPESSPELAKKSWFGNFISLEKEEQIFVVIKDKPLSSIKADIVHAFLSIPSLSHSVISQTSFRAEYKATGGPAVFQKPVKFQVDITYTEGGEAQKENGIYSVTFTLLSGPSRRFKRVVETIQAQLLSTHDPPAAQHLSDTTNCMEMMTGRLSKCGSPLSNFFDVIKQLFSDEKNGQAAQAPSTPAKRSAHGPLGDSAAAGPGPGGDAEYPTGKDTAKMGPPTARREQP
Description: Selectivity interaction (LanthaScreen Eu Kinase Binding Assay) EUB0001632a BRSK2. The following applies: at 10 µM.

Assay [5] has as its target Vascular endothelial growth factor receptor 1 (Homo sapiens) (UniProt P17948). In words: Selectivity interaction (KinomeScan (DiscoverX)) EUB0001619a FLT1. The following applies: at 1 µM.
Assay [6] addresses Ribosomal protein S6 kinase alpha-2 (Homo sapiens) (UniProt Q15349). Description: Selectivity interaction (KinomeScan (DiscoverX)) EUB0001619a RPS6KA2. The conditions noted are these: at 1 µM.
For assay [7], the target named is T3, Beta-adrenergic receptor kinase 1 (Homo sapiens) (UniProt P25098).
T3 sequence (whole entry): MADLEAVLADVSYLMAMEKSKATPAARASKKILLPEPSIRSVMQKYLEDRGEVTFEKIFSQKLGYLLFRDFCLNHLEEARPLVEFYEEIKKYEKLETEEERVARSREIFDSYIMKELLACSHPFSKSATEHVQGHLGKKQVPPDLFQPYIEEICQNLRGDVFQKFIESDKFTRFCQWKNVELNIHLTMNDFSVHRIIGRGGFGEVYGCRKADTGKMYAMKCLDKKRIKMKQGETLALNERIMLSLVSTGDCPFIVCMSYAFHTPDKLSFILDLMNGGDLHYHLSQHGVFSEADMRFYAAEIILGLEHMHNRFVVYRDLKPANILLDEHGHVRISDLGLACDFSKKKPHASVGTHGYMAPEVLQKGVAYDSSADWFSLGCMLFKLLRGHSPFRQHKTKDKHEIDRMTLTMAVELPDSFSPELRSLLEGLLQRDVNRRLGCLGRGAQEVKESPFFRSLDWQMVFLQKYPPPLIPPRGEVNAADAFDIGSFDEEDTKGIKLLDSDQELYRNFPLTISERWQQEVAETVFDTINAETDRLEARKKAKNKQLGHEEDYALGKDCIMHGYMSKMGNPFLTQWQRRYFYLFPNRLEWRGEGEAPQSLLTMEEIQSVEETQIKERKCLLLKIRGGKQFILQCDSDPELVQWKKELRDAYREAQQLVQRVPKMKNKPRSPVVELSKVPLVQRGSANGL
Description: Selectivity interaction (KinomeScan (DiscoverX)) EUB0000695a ADRBK1. The following applies: at 100 nM.

Assay [8] concerns the target ALK tyrosine kinase receptor (Homo sapiens, UniProt Q9UM73). In words: Selectivity interaction (KinomeScan (DiscoverX)) EUB0000607a ALK. The conditions noted are these: at 10 µM.
Assay [9] has as its target Serine/threonine-protein kinase PRP4 homolog (Homo sapiens) (UniProt Q13523). Description: Selectivity interaction (KinomeScan (DiscoverX)) EUB0000607a PRPF4. The conditions noted are these: at 10 µM.
Assay [10] deals with Serine/threonine-protein kinase WNK1 (Homo sapiens) (UniProt Q9H4A3). In words: Selectivity interaction (Kinase panel (DSF assay)) EUB0001558a WNK1.
Assay [11] concerns the target Serine/threonine-protein kinase 10 (Homo sapiens) (UniProt O94804). In words: Selectivity interaction (KinomeScan (DiscoverX)) EUB0001079a STK10. The following applies: at 1 µM.

Vascular endothelial growth factor receptor 1 (Homo sapiens), sequence (P17948 whole entry): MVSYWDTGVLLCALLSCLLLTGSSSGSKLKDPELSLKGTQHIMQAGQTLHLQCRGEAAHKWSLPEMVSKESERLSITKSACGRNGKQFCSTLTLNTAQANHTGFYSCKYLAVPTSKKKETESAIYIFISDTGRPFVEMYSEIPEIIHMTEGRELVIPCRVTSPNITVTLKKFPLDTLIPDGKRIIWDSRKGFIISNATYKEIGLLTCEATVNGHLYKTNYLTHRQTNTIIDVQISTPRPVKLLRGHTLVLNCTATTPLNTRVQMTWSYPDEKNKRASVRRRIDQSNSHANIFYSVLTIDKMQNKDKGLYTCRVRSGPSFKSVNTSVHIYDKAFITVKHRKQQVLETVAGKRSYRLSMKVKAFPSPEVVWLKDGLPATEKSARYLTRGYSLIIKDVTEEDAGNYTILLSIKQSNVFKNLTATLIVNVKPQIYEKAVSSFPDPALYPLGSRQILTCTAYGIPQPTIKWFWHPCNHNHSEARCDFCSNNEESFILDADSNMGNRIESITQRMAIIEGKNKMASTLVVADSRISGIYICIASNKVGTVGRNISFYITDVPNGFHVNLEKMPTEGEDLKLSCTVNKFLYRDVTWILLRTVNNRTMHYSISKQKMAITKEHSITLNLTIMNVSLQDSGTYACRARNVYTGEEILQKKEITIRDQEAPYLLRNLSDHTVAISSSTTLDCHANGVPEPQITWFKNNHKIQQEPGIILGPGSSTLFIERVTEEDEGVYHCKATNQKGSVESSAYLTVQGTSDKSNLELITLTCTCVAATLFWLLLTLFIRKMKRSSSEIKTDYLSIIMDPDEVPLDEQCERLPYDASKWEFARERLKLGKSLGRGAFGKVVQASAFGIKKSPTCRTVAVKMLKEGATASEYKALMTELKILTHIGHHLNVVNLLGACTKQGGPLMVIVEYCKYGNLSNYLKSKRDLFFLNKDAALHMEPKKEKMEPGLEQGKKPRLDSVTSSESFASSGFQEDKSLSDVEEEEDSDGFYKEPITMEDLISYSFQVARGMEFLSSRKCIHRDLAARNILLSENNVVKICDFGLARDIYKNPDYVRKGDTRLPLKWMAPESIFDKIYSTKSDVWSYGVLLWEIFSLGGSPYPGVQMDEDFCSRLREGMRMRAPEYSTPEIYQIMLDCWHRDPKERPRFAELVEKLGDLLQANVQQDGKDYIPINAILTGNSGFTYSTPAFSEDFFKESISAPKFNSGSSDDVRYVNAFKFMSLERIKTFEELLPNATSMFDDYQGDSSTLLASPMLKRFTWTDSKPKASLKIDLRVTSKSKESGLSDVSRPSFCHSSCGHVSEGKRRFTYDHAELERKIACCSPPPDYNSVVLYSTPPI
Ribosomal protein S6 kinase alpha-2 (Homo sapiens), sequence (Q15349 whole entry): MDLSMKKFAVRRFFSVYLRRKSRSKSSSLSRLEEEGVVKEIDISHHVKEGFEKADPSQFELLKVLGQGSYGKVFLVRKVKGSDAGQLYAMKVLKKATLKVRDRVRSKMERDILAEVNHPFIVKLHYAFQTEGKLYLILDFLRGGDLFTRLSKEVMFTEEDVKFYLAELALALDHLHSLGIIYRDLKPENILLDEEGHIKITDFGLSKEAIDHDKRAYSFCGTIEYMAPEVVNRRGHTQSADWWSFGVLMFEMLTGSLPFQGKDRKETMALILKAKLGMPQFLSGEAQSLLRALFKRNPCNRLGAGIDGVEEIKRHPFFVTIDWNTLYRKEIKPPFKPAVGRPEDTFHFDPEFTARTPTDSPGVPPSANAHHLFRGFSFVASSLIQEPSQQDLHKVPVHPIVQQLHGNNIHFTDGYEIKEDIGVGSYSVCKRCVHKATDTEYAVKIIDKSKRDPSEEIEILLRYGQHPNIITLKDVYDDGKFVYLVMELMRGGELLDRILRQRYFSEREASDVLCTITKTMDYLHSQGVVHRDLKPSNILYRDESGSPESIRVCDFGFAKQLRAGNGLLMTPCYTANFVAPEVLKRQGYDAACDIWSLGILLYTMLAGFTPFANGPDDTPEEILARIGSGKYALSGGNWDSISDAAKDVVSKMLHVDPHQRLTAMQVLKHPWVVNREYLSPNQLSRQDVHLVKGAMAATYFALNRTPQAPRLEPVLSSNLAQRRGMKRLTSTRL
Phosphatidylinositol 4-phosphate 3-kinase C2 domain-containing subunit alpha (Homo sapiens), sequence (O00443 whole entry, the tested form may be a part): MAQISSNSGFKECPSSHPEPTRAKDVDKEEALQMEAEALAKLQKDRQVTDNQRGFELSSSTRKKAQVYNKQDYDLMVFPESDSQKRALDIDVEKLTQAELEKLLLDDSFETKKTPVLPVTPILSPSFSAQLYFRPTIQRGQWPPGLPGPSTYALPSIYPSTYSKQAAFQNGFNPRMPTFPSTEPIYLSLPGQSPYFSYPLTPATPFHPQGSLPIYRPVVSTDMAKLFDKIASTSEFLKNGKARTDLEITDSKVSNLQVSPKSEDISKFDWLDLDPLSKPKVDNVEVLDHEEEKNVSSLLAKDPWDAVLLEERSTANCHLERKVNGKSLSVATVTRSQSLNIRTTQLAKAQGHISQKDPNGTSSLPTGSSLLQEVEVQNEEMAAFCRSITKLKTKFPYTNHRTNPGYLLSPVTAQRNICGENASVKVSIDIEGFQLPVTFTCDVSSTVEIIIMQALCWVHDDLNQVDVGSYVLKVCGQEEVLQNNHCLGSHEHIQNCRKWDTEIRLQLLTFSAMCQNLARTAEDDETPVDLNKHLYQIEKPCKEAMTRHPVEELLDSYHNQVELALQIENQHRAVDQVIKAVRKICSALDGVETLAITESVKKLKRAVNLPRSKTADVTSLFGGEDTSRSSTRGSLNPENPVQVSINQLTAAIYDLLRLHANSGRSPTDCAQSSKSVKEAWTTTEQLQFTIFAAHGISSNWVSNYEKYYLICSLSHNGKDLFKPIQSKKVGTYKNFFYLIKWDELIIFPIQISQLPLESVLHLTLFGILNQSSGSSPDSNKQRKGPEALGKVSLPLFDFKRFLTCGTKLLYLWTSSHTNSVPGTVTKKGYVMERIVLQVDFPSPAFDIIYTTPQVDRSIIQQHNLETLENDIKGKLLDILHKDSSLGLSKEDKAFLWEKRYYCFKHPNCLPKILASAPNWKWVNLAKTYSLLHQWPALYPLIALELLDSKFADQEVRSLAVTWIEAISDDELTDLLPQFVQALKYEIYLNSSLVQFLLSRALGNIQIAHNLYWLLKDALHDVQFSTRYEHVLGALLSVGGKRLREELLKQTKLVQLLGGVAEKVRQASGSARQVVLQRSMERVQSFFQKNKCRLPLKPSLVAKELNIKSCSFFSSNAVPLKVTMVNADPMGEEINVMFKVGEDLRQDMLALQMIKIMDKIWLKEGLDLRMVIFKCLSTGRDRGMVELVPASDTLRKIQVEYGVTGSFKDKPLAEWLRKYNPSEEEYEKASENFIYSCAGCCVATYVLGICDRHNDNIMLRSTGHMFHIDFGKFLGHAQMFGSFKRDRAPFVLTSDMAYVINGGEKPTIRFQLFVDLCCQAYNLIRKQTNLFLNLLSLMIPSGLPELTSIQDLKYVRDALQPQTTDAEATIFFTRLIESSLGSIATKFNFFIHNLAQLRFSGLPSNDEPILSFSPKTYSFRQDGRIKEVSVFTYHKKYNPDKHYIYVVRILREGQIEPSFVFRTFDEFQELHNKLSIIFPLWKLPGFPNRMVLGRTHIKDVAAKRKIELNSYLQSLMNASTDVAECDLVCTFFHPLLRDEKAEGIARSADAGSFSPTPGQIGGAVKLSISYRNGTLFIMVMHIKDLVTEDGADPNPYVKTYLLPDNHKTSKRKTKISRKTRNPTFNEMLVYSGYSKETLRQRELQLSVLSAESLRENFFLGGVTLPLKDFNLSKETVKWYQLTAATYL
Serine/threonine-protein kinase SIK1 (Homo sapiens), sequence (P57059 whole entry, the tested form may be a part): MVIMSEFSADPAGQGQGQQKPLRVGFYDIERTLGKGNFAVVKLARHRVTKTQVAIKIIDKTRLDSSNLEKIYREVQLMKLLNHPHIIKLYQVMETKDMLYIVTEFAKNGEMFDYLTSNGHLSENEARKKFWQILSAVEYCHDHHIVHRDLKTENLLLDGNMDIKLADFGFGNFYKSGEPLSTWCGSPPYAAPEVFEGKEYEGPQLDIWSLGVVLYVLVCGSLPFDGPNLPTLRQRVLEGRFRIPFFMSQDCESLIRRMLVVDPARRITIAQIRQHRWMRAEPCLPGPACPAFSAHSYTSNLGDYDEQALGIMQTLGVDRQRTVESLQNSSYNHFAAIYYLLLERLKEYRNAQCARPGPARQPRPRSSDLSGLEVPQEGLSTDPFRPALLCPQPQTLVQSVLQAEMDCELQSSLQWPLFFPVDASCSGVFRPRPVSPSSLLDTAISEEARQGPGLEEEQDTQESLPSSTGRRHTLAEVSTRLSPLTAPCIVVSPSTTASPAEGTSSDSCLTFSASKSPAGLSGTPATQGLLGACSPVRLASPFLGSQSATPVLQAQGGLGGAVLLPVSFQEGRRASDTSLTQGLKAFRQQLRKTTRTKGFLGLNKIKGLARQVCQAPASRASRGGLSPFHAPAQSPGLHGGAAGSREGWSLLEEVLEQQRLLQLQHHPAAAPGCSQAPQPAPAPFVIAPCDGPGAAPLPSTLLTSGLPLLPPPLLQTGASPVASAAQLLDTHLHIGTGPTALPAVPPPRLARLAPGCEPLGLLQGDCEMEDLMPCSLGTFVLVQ

For the molecule `Cn1cc(-n2cnc3c(NCc4nc5cc(Cl)c(Cl)cc5[nH]4)nc(N4CCOCC4)nc32)cn1`, the % of control in assay [1] stood at 0.629%. The % of inhibition was -0.976% in assay [2], 5.89% in assay [3] and -172% in [4].

With `N#Cc1cccc(-c2c[nH]c3ncnc(N4CCOCC4)c23)c1`, the % of control amounted to 73% in [5] and 100% in assay [6].

Take `Cc1cc(F)c(C(=O)Nc2cccc(-c3nncn3C(C)C)n2)cc1-n1cnc(C2CC2)c1`: the % of control in [7] was 70%.

Take `CNC(=O)Nc1ccc(-c2nc(N3CC4CCC(C3)O4)c3cnn(C4CCC5(CC4)OCCO5)c3n2)cc1`: the % of control in assay [8] is 42%; in [9], 70%.

`CC(C)(O)[C@H](F)CN1Cc2cc(NC(=O)c3cnn4cccnc34)c(N3CCOCC3)cc2C1=O` gave a dTM in [10] of -0.2 K.

For `Nc1cnc(N2CCc3cc(S(=O)(=O)Nc4c(F)cc(Cl)cc4F)cc(N4CCCC4=O)c32)nc1` [TP-020n], the % of control in [11] is 100%.
